This experiment relates to Male Wistar rats. The experiment can be described thus: Montoya staircase test. It counts as in vivo, rat. The protocol: Male Wistar rats (250 to 300 grams; Charles River, Montreal, Quebec) were divided into 4 groups: intracerebroventricular injections of Aβ(25-35) (BACHEM, Torrance, Calif.); endothelin injections into the right striatum; both Aβ(25-35) and striatal endothelin injections; and sham procedures. The Aβ(25-35) fragment was used to reduce the possibility of rapid coagulation and to allow diffusion of the peptide into the brain.
All rats were anesthetized using 40 mg/kg of pentobarbital (Somnotol; MTC Pharmaceuticals, Cambridge, Ontario) intraperitoneally. Body temperature was maintained at 37° C. Aβ(25-35) (50 nmol in 10 μL of saline) was injected bilaterally into the lateral ventricles. Aβ(25-35) was prepared according to established methods (Sigurdsson, et al. (1997) supra). Aβ(25-35) (50 nmol in 10 μL of saline at a rate of 1 μL/minute) was injected bilaterally into the lateral ventricles via a stainless-steel cannula (23-gauge; anterior/posterior −0.8, medial/lateral ±1.4, and dorsal/ventral −4.0 below dura). Two endothelin injections (6 pmol in 3 μL of saline), 1 mm apart, were made into the right striatum (Sigurdsson, et al. (1997) supra). Sham procedures involved all the surgical steps without injections of Aβ(25-35) or endothelin. After wound suture, all rats received […] of buprenorphine intramuscularly and were allowed to recover from surgery for 7 days.
For training (n=10 for each group), rats were placed into the Montoya staircase apparatus (Montoya, et al. (1991) supra) at the same time every day for 8 days (days −8 through −1) and were allowed to perform the test for 20 minutes. Rats were food-deprived for 1 day (day −9) before testing, as well as on day −8. On days −7 though −1, rats were fed 10 grams of their normal chow so that they maintained their body weight at ˜85%. Three NOYES LAB ANIMAL PRECISION FOOD PELLETS™ (Research Diets, Inc., New Brunswick, N.J.) were placed in each of the 14 wells (7 on each side). Pellets eaten were recorded from each well. Re-testing trials, which were performed 7 days after the surgical procedures (day 0), were performed for 8 days in the same way as the training trials (days 8 through 15).
Digital photographs were taken using a light microscope (Leitz Diaplan). An investigator was blinded to the identification of the rat sections while analysis was being performed. […] Also, relative optical density measurements and numbers of stained cells or accumulations were measured in entire brain areas for quantitative analysis and statistically analyzed with ANOVA and Tukey post hoc test with a significance level of P<0.05. […] The staircase data are expressed as the mean±SEM. […] Data are expressed as mean±SEM. […]

Where no end group is shown, it is not given here.

“GSNKGAIIGLM [Aβ, β-amyloid fragment (25-35), 50 nmol injected bilaterally into the lateral ventricles of rats]”: for the setting “day 8 (first day of re-testing), mean±SEM”, the “Staircase test performance, ipsilateral paw” value was 73±8 % of pretreatment. For the same sequence, the “total number of pellets eaten” value (day 8 compared with the last day of training, disappeared by day 9) is “significant deficit”.
